From ChEMBL document CHEMBL4400538, “Discovery of Carboline Derivatives as Potent Antifungal Agents for the Treatment of Cryptococcal Meningitis” (J Med Chem, 2019)
Activity calls are given as the source filed them. No cut-off for these calls is given here.

How the values were obtained:
[1] = system: Cryptococcus neoformans; test: Antifungal activity against Cryptococcus neoformans H99 after 72 hrs by growth curve assay; type: functional; settings: var grubii H99 
[2] = system: Cryptococcus neoformans; test: Induction of up-regulation of Lig1 gene expression in Cryptococcus neoformans H99 at 2 ug/ml after 24 hrs by RNA-seq analysis based KEGG pathway enrichment analysis; type: functional, organism-based; settings: var grubii H99
[3] = Clearance in ICR mouse liver microsomes at 1 uM measured up to 45 mins in presence of NADPH by LC-MS/MS analysis; type: ADME, Microsome; settings: 0.75 h
[4] = system: Cryptococcus neoformans; test: Antifungal activity against Cryptococcus neoformans H99 assessed as inhibition of microbial growth at 8 ug/ml after 12 to 48 hrs by growth curve assay; type: functional; settings: var grubii H99, read-out: GI
[5] = system: Cryptococcus neoformans; test: Antifungal activity against Cryptococcus neoformans H99 infected in ICR mouse assessed as reduction in brain fungal load at 20 mg/kg, po administered daily for 5 days; type: functional, organism-based; settings: var grubii H99
[6] = Effective permeability of the compound after 12 hrs by PAMPA; type: ADME; settings: read-out: Peff
[7] = system: Cryptococcus neoformans; test: Antifungal activity against Cryptococcus neoformans ATCC 34877 after 72 hrs by spectrophotometery; type: functional; settings: ATCC 34877, 72 h
[8] = system: Nannizzia gypsea; test: Antifungal activity against Microsporum gypseum MZC after 48 hrs by spectrophotometery; type: functional
[9] = system: Cryptococcus neoformans; test: Inhibition of melanin production in Cryptococcus neoformans H99 at 2.5 ug/ml; type: functional, organism-based; settings: var grubii H99
[10] = system: Candida parapsilosis; test: Antifungal activity against Candida parapsilosis 5008 after 48 hrs by spectrophotometery; type: functional; settings: Lodderomyces parapsilosis, 5008, 48 h
[11] = system: Cryptococcus neoformans; test: Induction of up-regulation of Mob1 gene expression in Cryptococcus neoformans H99 at 2 ug/ml after 24 hrs by RNA-seq analysis based KEGG pathway enrichment analysis; type: functional, organism-based; settings: var grubii H99
[12] = system: Cryptococcus neoformans; test: Antibiofilm activity against Cryptococcus neoformans H99 at 16 ug/ml after 90 mins by XTT assay; type: functional, organism-based; settings: var grubii H99
[13] = system: Cryptococcus neoformans; test: Induction of up-regulation of Hs17 gene expression in Cryptococcus neoformans H99 at 2 ug/ml after 24 hrs by RNA-seq analysis based KEGG pathway enrichment analysis; type: functional, organism-based; settings: var grubii H99
[14] = system: Cryptococcus neoformans; test: Antifungal activity against Cryptococcus neoformans H99 assessed as up-regulation of cyclin B1 expression after 24 hrs by Western blot analysis; type: functional, organism-based; settings: var grubii H99
[15] = system: Cryptococcus neoformans; test: Antifungal activity against Cryptococcus neoformans H99 assessed as induction of gamma-H2AX foci at 2 ug/ml after 48 hrs by Hoechst-33342 staining based fluorescence microscopy; type: functional, organism-based; settings: var grubii H99
[16] = system: Cryptococcus neoformans; test: Antibiofilm activity against Cryptococcus neoformans H99 assessed as inhibition of cellular surface hydrophobicity at 5 ug/ml incubated for 24 hrs by water-hydrocarbon two-phase assay; type: functional, organism-based; settings: var grubii H99
[17] = system: Cryptococcus neoformans; test: Antifungal activity against Cryptococcus neoformans H99 assessed as up-regulation of CDK1 expression after 24 hrs by Western blot analysis; type: functional, organism-based; settings: var grubii H99
[18] = system: Cryptococcus neoformans; test: Antifungal activity against Cryptococcus neoformans H99 assessed as up-regulation of Cdc25C expression after 24 hrs by Western blot analysis; type: functional, organism-based; settings: var grubii H99
[19] = system: Cryptococcus neoformans; test: Induction of cell cycle arrest in Cryptococcus neoformans H99 assessed as accumulation at G2 phase at 1 to 2 ug/ml after 24 hrs by propidium iodide-staining based FACS analysis (reference value: 3.86%); type: functional, var grubii H99
[20] = system: Cryptococcus neoformans; test: Induction of up-regulation of ORC gene expression in Cryptococcus neoformans H99 at 2 ug/ml after 24 hrs by RNA-seq analysis based KEGG pathway enrichment analysis; type: functional, organism-based; settings: var grubii H99
[21] = system: Nakaseomyces glabratus; test: Antifungal activity against Candida glabrata 8535 after 48 hrs by spectrophotometery; type: functional; settings: Nakaseomyces glabratus, 8535, 48 h
[22] = system: Trichophyton rubrum; test: Antifungal activity against Trichophyton rubrum TIA after 48 hrs by spectrophotometery; type: functional
[23] = system: Cryptococcus neoformans; test: Induction of up-regulation of MCM gene expression in Cryptococcus neoformans H99 at 2 ug/ml after 24 hrs by RNA-seq analysis based KEGG pathway enrichment analysis; type: functional, organism-based; settings: var grubii H99
[24] = system: Cryptococcus neoformans; test: Antifungal activity against Cryptococcus neoformans H99 assessed as nuclear pyknosis at 4 ug/ml after 24 hrs by TEM analysis; type: functional, organism-based; settings: var grubii H99
[25] = system: Cryptococcus neoformans; test: Induction of up-regulation of DNA polymerase alpha2 gene expression in Cryptococcus neoformans H99 at 2 ug/ml after 24 hrs by RNA-seq analysis based KEGG pathway enrichment analysis; type: functional, organism-based; settings: var grubii H99
[26] = system: Cryptococcus gattii; test: Antifungal activity against Cryptococcus gattii ATCC 14116 after 72 hrs by spectrophotometery; settings: ATCC 14116, 72 h
[27] = system: Cryptococcus neoformans; test: Induction of up-regulation of PCNA gene expression in Cryptococcus neoformans H99 at 2 ug/ml after 24 hrs by RNA-seq analysis based KEGG pathway enrichment analysis; type: functional, organism-based; settings: var grubii H99
[28] = system: Cryptococcus neoformans; test: Induction of cell cycle arrest in Cryptococcus neoformans H99 assessed as accumulation at S phase at 1 to 2 ug/ml after 24 hrs by propidium iodide-staining based FACS analysis (reference value: 51.64%); type: functional, var grubii H99
[29] = system: Aspergillus fumigatus; test: Antifungal activity against Aspergillus fumigatus 7544 after 48 hrs by spectrophotometery; type: functional; settings: Aspergillus fumigatus, 7544, 48 h
[30] = system: Cryptococcus neoformans; test: Induction of up-regulation of Mps1 gene expression in Cryptococcus neoformans H99 at 2 ug/ml after 24 hrs by RNA-seq analysis based KEGG pathway enrichment analysis; type: functional, organism-based; settings: var grubii H99
[31] = system: Cryptococcus neoformans; test: Antifungal activity against Cryptococcus neoformans H99 infected in ICR mouse assessed as reduction in brain fungal load at 10 mg/kg, ip administered once daily; type: functional, organism-based; settings: var grubii H99
[32] = Protein binding in mouse plasma; type: ADME, cell-free
[33] = Half life in ICR mouse liver microsomes at 1 uM measured up to 45 mins in presence of NADPH by LC-MS/MS analysis; type: ADME, Microsome
[34] = system: Cryptococcus neoformans; test: Antifungal activity against Cryptococcus neoformans H99 assessed as formation of abnormally shaped cells at 4 ug/ml after 24 hrs by TEM analysis; type: functional, organism-based; settings: var grubii H99
[35] = system: Cryptococcus neoformans; test: Induction of up-regulation of PNAC gene expression in Cryptococcus neoformans H99 at 2 ug/ml after 24 hrs by RNA-seq analysis based KEGG pathway enrichment analysis; type: functional, organism-based; settings: var grubii H99
[36] = system: HUVEC; test: Cytotoxicity against human HUVEC; type: cell-based
[37] = system: Cryptococcus neoformans; test: Antifungal activity against Cryptococcus neoformans H99 assessed as cell wall collapse at 4 ug/ml after 24 hrs by TEM analysis; type: functional, organism-based; settings: var grubii H99
[38] = system: Candida albicans; test: Antifungal activity against Candida albicans 7781 after 48 hrs by spectrophotometery; type: functional; settings: Candida albicans, 7781, 48 h
[39] = system: Cryptococcus neoformans; test: Induction of up-regulation of APC/C gene expression in Cryptococcus neoformans H99 at 2 ug/ml after 24 hrs by RNA-seq analysis based KEGG pathway enrichment analysis; type: functional, organism-based; settings: var grubii H99
[40] = system: Cryptococcus neoformans; test: Induction of up-regulation of PLK1 gene expression in Cryptococcus neoformans H99 at 2 ug/ml after 24 hrs by RNA-seq analysis based KEGG pathway enrichment analysis; type: functional, organism-based; settings: var grubii H99
[41] = system: Cryptococcus neoformans; test: Induction of up-regulation of Ycg1 gene expression in Cryptococcus neoformans H99 at 2 ug/ml after 24 hrs by RNA-seq analysis based KEGG pathway enrichment analysis; type: functional, organism-based; settings: var grubii H99
[42] = system: Candida albicans; test: Antifungal activity against Candida albicans 0304103 after 48 hrs by spectrophotometery; type: functional; settings: Candida albicans, 0304103, 48 h
[43] = system: Cryptococcus neoformans; test: Antifungal activity against Cryptococcus neoformans H99 after 48 hrs by growth curve assay; type: functional
[44] = system: Cryptococcus neoformans; test: Inhibition of urease production in Cryptococcus neoformans H99 at 10 ug/ml; type: functional, organism-based; settings: var grubii H99
[45] = Solubility of the compound; type: physicochemical
[46] = system: Cryptococcus neoformans; test: Induction of cell cycle arrest in Cryptococcus neoformans H99 assessed as accumulation at G1 phase at 1 to 2 ug/ml after 24 hrs by propidium iodide-staining based FACS analysis (reference value: 44.50%); type: functional, var grubii H99

## Clc1ccc(OCCCn2c3c(c4cc(Cl)ccc42)CCNC3)cc1.O=C(O)C(F)(F)F
[1]
  MIC80: 0.5 µg/mL
[2]
  Activity: Active
[3]
  scaled CLint: 78 mL/min/kg
[4]
  inhibition of growth at 8 µg/mL: 100%
[5]
  Activity: Active
[6]
  Papp at 12 h: 1.8 ×10⁻⁶ cm/s
[7]
  MIC80: 0.5 µg/mL
[8]
  MIC80: 8 µg/mL
[9]
  inhibition: Active
[10]
  MIC80: 2 µg/mL
[11]
  Activity: Active
[12]
  Activity: Active
[13]
  Activity: Active
[14]
  Activity: Dose-dependent effect
[15]
  Activity: Active
[16]
  Activity: Active
[17]
  Activity: Dose-dependent effect
[18]
  Activity: Dose-dependent effect
[19]
  Activity: 10.34%
[20]
  Activity: Active
[21]
  MIC80: 1 µg/mL
[22]
  MIC80: 4 µg/mL
[23]
  Activity: Active
[24]
  Activity: Active
[25]
  Activity: Active
[26]
  MIC80: 1 µg/mL
[27]
  Activity: Active
[28]
  Activity: 53.21%
[29]
  MIC80: 16 µg/mL
[30]
  Activity: Active
[31]
  Activity: Active
[32]
  PPB: Active
[33]
  half-life at 1 µM: 1.17 h
[34]
  Activity: Active
[35]
  Activity: Active
[36]
  Activity: Non-Toxic
[37]
  Activity: Active
[38]
  MIC80: 4 µg/mL
[39]
  Activity: Active
[40]
  Activity: Active
[41]
  Activity: Active
[42]
  MIC80: 2 µg/mL
[43]; var grubii H99
  Activity: Dose-dependent effect
[43]; var grubii H99 
  MIC80: 0.25 µg/mL
[44]
  inhibition: inactive
[45]
  solubility: 54.6 µg/mL
[46]
  Activity: 36.45%
